Laboratory results from PubChem BioAssay AID1963440 (Molecular Pharmacology Branch, DTP, NCI, 2024).

System: NCI-H1417 complex spheroids, growth % test/control
Test: Anticancer human tumor NCI-H1417 cell line growth inhibition [Asc];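 further: spheroids exposed to compounds for 7 days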;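 on viability, T/C: 100% = DMSO vehicle control wells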
Details: for IC50: curve of first compound; for viability, T/C: stronger effect = lower value; active means viability on the fitted dose curve at most 10% of control; inactive means the rest
How it was run: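 Spheroid model: tumor line + HUVEC + hMSC. Single agents and combinations; top conc. at/near clinical Cmax (10 microM if undetermined), half-log dilutions. DMSO stocks at 800-fold test concentration.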

[1] = second compound 0.1 µM, first compound 0.00316 µM
[2] = second compound 0.1 µM, first compound 0.01 µM
[3] = second compound 0.1 µM, first compound 0.0316 µM
[4] = second compound 0.1 µM, first compound 0.1 µM
[5] = second compound 0.1 µM, first compound 0.316 µM
[6] = second compound 0.1 µM, first compound 1 µM
[7] = second compound 0.316 µM, first compound 0.00316 µM
[8] = second compound 0.316 µM, first compound 0.01 µM
[9] = second compound 0.316 µM, first compound 0.0316 µM
[10] = second compound 0.316 µM, first compound 0.1 µM
[11] = second compound 0.316 µM, first compound 0.316 µM
[12] = second compound 0.316 µM, first compound 1 µM
[13] = second compound 1 µM, first compound 0.00316 µM
[14] = second compound 1 µM, first compound 0.01 µM
[15] = second compound 1 µM, first compound 0.0316 µM
[16] = second compound 1 µM, first compound 0.1 µM
[17] = second compound 1 µM, first compound 0.316 µM
[18] = second compound 1 µM, first compound 1 µM

Cc1nc(N2CCC3(CC2)COC(C)C3N)c(CO)nc1Sc1ccnc(N)c1Cl (configuration not stated) + CNC(C)C(=O)NC1CN(S(=O)(=O)c2cccc(S(=O)(=O)N3CCC4CCC(C(=O)NC(c5ccccc5)c5ccccc5)N4C(=O)C(NC(=O)C(C)NC)C3)c2)CCC2CCC(C(=O)NC(c3ccccc3)c3ccccc3)N2C1=O
inactive: viability, T/C (second compound 0.00316 µM, first compound 0.00949 µM) 99.4% | viability, T/C (second compound 0.00316 µM, first compound 0.03 µM) 89% | viability, T/C (second compound 0.00316 µM, first compound 0.0949 µM) 85.8% | viability, T/C (second compound 0.00316 µM, first compound 0.3 µM) 81.9% | viability, T/C (second compound 0.00316 µM, first compound 0.949 µM) 93.4% | viability, T/C (second compound 0.00316 µM, first compound 3 µM) 92.6% | viability, T/C (second compound 0.01 µM, first compound 0.00949 µM) 91.9% | viability, T/C (second compound 0.01 µM, first compound 0.03 µM) 100% | viability, T/C (second compound 0.01 µM, first compound 0.0949 µM) 89.3% | viability, T/C (second compound 0.01 µM, first compound 0.3 µM) 87.8% | viability, T/C (second compound 0.01 µM, first compound 0.949 µM) 96.9% | viability, T/C (second compound 0.01 µM, first compound 3 µM) 84.1% | viability, T/C (second compound 0.0316 µM, first compound 0.00949 µM) 93.9% | viability, T/C (second compound 0.0316 µM, first compound 0.03 µM) 92.2% | viability, T/C (second compound 0.0316 µM, first compound 0.0949 µM) 101% | viability, T/C (second compound 0.0316 µM, first compound 0.3 µM) 83.6% | viability, T/C (second compound 0.0316 µM, first compound 0.949 µM) 98.2% | viability, T/C (second compound 0.0316 µM, first compound 3 µM) 79% | viability, T/C (second compound 0.1 µM, first compound 0.00949 µM) 87.5% | viability, T/C (second compound 0.1 µM, first compound 0.03 µM) 86.6% | viability, T/C (second compound 0.1 µM, first compound 0.0949 µM) 91.7% | viability, T/C (second compound 0.1 µM, first compound 0.3 µM) 86.2% | viability, T/C (second compound 0.1 µM, first compound 0.949 µM) 86.9% | viability, T/C (second compound 0.1 µM, first compound 3 µM) 86.2% | viability, T/C (second compound 0.316 µM, first compound 0.00949 µM) 82.8% | viability, T/C (second compound 0.316 µM, first compound 0.03 µM) 90.2% | viability, T/C (second compound 0.316 µM, first compound 0.0949 µM) 88% | viability, T/C (second compound 0.316 µM, first compound 0.3 µM) 88.8% | viability, T/C (second compound 0.316 µM, first compound 0.949 µM) 84.1% | viability, T/C (second compound 0.316 µM, first compound 3 µM) 94.2% | viability, T/C (second compound 1 µM, first compound 0.00949 µM) 78.1% | viability, T/C (second compound 1 µM, first compound 0.03 µM) 98.6% | viability, T/C (second compound 1 µM, first compound 0.0949 µM) 90.2% | viability, T/C (second compound 1 µM, first compound 0.3 µM) 89.8% | viability, T/C (second compound 1 µM, first compound 0.949 µM) 83.7% | viability, T/C (second compound 1 µM, first compound 3 µM) 87.7%
> 3000 nM: IC50 (second compound 0.00316 µM) | IC50 (second compound 0.01 µM) | IC50 (second compound 0.0316 µM) | IC50 (second compound 0.1 µM) | IC50 (second compound 0.316 µM) | IC50 (second compound 1 µM)

O=C(c1ccc(F)c(F)c1Nc1ccc(I)cc1F)N1CC(O)([C@@H]2CCCCN2)C1 + CNC(C)C(=O)NC1CN(S(=O)(=O)c2cccc(S(=O)(=O)N3CCC4CCC(C(=O)NC(c5ccccc5)c5ccccc5)N4C(=O)C(NC(=O)C(C)NC)C3)c2)CCC2CCC(C(=O)NC(c3ccccc3)c3ccccc3)N2C1=O
inactive: viability, T/C (second compound 0.01 µM, first compound 0.00316 µM) 107% | viability, T/C (second compound 0.01 µM, first compound 0.01 µM) 102% | viability, T/C (second compound 0.01 µM, first compound 0.0316 µM) 95% | viability, T/C (second compound 0.01 µM, first compound 0.1 µM) 103% | viability, T/C (second compound 0.01 µM, first compound 0.316 µM) 99.5% | viability, T/C (second compound 0.01 µM, first compound 1 µM) 85.3% | viability, T/C (second compound 0.0316 µM, first compound 0.00316 µM) 107% | viability, T/C (second compound 0.0316 µM, first compound 0.01 µM) 96.6% | viability, T/C (second compound 0.0316 µM, first compound 0.0316 µM) 92.7% | viability, T/C (second compound 0.0316 µM, first compound 0.1 µM) 102% | viability, T/C (second compound 0.0316 µM, first compound 0.316 µM) 96.7% | viability, T/C (second compound 0.0316 µM, first compound 1 µM) 103% | viability, T/C [1] 101% | viability, T/C [2] 90.8% | viability, T/C [3] 95.3% | viability, T/C [4] 98.4% | viability, T/C [5] 99.4% | viability, T/C [6] 91.2% | viability, T/C [7] 88.6% | viability, T/C [8] 104% | viability, T/C [9] 110% | viability, T/C [10] 90.9% | viability, T/C [11] 105% | viability, T/C [12] 101% | viability, T/C [13] 88% | viability, T/C [14] 93.8% | viability, T/C [15] 82.8% | viability, T/C [16] 95.8% | viability, T/C [17] 91.4% | viability, T/C [18] 102%
> 1000 nM: IC50 (second compound 0.01 µM) | IC50 (second compound 0.0316 µM) | IC50 (second compound 0.1 µM) | IC50 (second compound 0.316 µM) | IC50 (second compound 1 µM)

CNC(C)C(=O)NC1CN(S(=O)(=O)c2cccc(S(=O)(=O)N3CCC4CCC(C(=O)NC(c5ccccc5)c5ccccc5)N4C(=O)C(NC(=O)C(C)NC)C3)c2)CCC2CCC(C(=O)NC(c3ccccc3)c3ccccc3)N2C1=O (configuration not stated) + Cc1c(S(C)(=O)=O)c(-c2cc(F)cc(N3CCN(c4ccc(NS(=O)(=O)c5ccc(NC(CCN6CCC(C(=O)OCCCP(=O)(O)O)CC6)CSc6ccccc6)c(S(=O)(=O)C(F)(F)F)c5)cc4)CC3)c2)c(-c2ccc(Cl)cc2)n1C(C)C
> 1000 nM: IC50 (second compound 0.1 µM)
active: viability, T/C [15] 9.05% | viability, T/C [16] 8.75% | viability, T/C [17] 4.64% | viability, T/C [18] 4.71% | viability, T/C (second compound 3.16 µM, first compound 0.00316 µM) 3.82% | viability, T/C (second compound 3.16 µM, first compound 0.01 µM) 2.79% | viability, T/C (second compound 3.16 µM, first compound 0.0316 µM) 2.43% | viability, T/C (second compound 3.16 µM, first compound 0.1 µM) 2.42% | viability, T/C (second compound 3.16 µM, first compound 0.316 µM) 2.07% | viability, T/C (second compound 3.16 µM, first compound 1 µM) 1.84% | viability, T/C (second compound 10 µM, first compound 0.00316 µM) 2.6% | viability, T/C (second compound 10 µM, first compound 0.01 µM) 1.96% | viability, T/C (second compound 10 µM, first compound 0.0316 µM) 3.22% | viability, T/C (second compound 10 µM, first compound 0.1 µM) 1.45% | viability, T/C (second compound 10 µM, first compound 0.316 µM) 1.71% | viability, T/C (second compound 10 µM, first compound 1 µM) 1.47%
< 3.16 nM: IC50 (second compound 0.316 µM) | IC50 (second compound 1 µM) | IC50 (second compound 3.16 µM) | IC50 (second compound 10 µM)
inactive: viability, T/C [1] 94.1% | viability, T/C [2] 95.3% | viability, T/C [3] 80.2% | viability, T/C [4] 74.7% | viability, T/C [5] 84.6% | viability, T/C [6] 81.1% | viability, T/C [7] 42.4% | viability, T/C [8] 47.4% | viability, T/C [9] 47.6% | viability, T/C [10] 36.8% | viability, T/C [11] 38% | viability, T/C [12] 39.3% | viability, T/C [13] 12.2% | viability, T/C [14] 10.3%
